Assays:
Estrogen receptor = molecular target: T1, Estrogen receptor (Homo sapiens, UniProt P03372); test: Binding affinity to human recombinant ERalpha by competitive fluorometric binding assay
T1 sequence (P03372 whole entry): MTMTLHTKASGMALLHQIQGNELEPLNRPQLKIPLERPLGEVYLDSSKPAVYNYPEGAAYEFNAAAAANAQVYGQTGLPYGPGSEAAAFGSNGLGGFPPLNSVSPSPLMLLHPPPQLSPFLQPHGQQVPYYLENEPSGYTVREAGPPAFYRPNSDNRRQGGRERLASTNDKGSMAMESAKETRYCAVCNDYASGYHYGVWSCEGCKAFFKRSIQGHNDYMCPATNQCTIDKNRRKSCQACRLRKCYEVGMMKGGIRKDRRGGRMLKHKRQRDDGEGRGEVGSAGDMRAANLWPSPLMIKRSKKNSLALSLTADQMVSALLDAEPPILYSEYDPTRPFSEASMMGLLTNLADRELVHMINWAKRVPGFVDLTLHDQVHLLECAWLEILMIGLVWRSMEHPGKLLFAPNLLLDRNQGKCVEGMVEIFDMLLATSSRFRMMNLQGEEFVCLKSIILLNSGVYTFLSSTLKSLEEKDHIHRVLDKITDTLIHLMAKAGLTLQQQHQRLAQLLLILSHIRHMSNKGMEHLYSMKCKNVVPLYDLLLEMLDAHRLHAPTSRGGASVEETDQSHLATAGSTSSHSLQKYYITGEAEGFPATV

Estrogen receptor beta = Estrogen receptor beta (Homo sapiens, UniProt Q92731)
Description: Binding affinity to human recombinant ERbeta by competitive fluorometric binding assay

MCF7 = test: cells; details: Homo sapiens, MCF7, 24 h
Description: Antiproliferative activity against human MCF7 cells assessed as cell viability after 24 hrs by MTT assay

MDA-MB-231 = test: cells; details: Homo sapiens, MDA-MB-231, 24 h
Description: Antiproliferative activity against human MDA-MB-231 cells assessed as cell viability after 24 hrs by MTT assay

HEK293 = test: Cytotoxicity against human HEK293 cells assessed as cell viability after 24 hrs by MTT assay; assay type: functional, cell-based; details: HEK293, 24 h
Chorioallantoic membrane = test: Anti-angiogenesis activity in chicken embryo chorioallantonic membrane measured after 2 hrs by CAM assay; assay type: functional; details: Gallus gallus
[1] = Selectivity index, ratio of IC50 for human recombinant ERbeta to human recombinant ERalpha

Sequence of Estrogen receptor beta (Q92731 whole entry): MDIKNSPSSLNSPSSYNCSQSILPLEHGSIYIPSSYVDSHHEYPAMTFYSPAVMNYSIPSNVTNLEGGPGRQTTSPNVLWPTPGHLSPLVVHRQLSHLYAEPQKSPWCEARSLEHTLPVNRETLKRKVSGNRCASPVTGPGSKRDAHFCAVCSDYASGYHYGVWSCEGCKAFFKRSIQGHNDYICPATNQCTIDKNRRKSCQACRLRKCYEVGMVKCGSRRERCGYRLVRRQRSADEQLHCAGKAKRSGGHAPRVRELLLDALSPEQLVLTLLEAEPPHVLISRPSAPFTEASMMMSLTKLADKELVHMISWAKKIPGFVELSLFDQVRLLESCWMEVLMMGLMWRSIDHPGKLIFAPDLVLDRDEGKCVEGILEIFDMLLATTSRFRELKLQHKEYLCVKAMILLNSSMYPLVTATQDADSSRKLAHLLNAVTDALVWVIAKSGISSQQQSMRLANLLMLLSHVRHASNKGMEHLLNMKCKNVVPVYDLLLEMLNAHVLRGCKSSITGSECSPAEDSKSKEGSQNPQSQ

Row | SMILES | IC50 (Estrogen receptor) [nM] | IC50 (Estrogen receptor beta) [µM] | IC50 (MCF7) [µM] | IC50 (MDA-MB-231) [µM] | IC50 (HEK293) [µM] | IC50 (Chorioallantoic membrane) [µM] | Ratio IC50 [1]
1 | CN1C(=O)N(N(C)CCC(Oc2ccc(C(F)(F)F)cc2)c2ccccc2)C(c2ccc(C(F)(F)F)cc2)C2=C1c1ccccc1C2=O (stereo not given) | 1330 | > 10 | 6.98 | > 50 | – | – | –
2 | CN1C(=O)NC(c2ccc(OCCN(CCO)CCO)cc2)C2=C1c1ccccc1C2=O (stereo not given) | 7.1 | 0.53 | 0.07 | > 50 | > 50 | 3.52 | –
3 | CN1C(=O)NC(c2ccc(OCCN3CCN(CC(F)(F)F)CC3)cc2)C2=C1c1ccccc1C2=O (stereo not given) | 1290 | > 10 | 6.25 | > 50 | – | – | –
4 | CN(C)CCOc1ccc(C2NC(=O)N(C)C3=C2C(=O)c2ccccc23)cc1 (stereo not given) | 3170 | > 10 | 11.3 | 21.1 | – | – | –
5 | CN(C)CCOc1ccc(C2C3=C(c4ccccc4C3=O)N(C)C(=O)N2CC(F)(F)F)cc1 (stereo not given) | 7550 | > 10 | 14.3 | 31.6 | – | – | –
6 | CC/C(=C(\c1ccccc1)c1ccc(OCCN(C)C)cc1)c1ccccc1 [TAMOXIFEN] | – | – | 8.53 | 14.9 | 26.3 | – | 0.054
7 | CN1C(=O)NC(c2ccc(O)cc2)C2=C1c1ccccc1C2=O (stereo not given) | 36100 | > 10 | – | – | – | – | –
8 | CN1C(=O)NC(c2ccc(C(F)(F)F)cc2)C2=C1c1ccccc1C2=O (stereo not given) | 29600 | > 10 | – | – | – | – | –
9 | CN(C)CCN1C(=O)N(C)C2=C(C(=O)c3ccccc32)C1c1ccc(C(F)(F)F)cc1 (stereo not given) | 2090 | > 10 | 13.2 | > 50 | – | – | –
10 | CN(Cc1cnc2nc(N)nc(N)c2n1)c1ccc(C(=O)N[C@@H](CCC(=O)O)C(=O)O)cc1 [METHOTREXATE] | – | – | – | – | – | 3.65 | –
11 | CN1C(=O)N(CCN2CCNCC2)C(c2ccc(C(F)(F)F)cc2)C2=C1c1ccccc1C2=O (stereo not given) | 21 | > 10 | 0.89 | > 50 | 44.3 | 19.1 | –
12 | CN1C(=O)NC(c2ccc(OCCN3CCNCC3)cc2)C2=C1c1ccccc1C2=O (stereo not given) | 440 | > 10 | 1.02 | > 50 | 37.5 | 6.7 | –
13 | CN1C(=O)N(CC(F)(F)F)C(c2ccc(OCCN3CCN(CC(F)(F)F)CC3)cc2)C2=C1c1ccccc1C2=O (stereo not given) | 930 | > 10 | 5.17 | > 50 | – | 6.94 | –
14 | CN1CCN(CCOc2ccc(C3C4=C(c5ccccc5C4=O)N(C)C(=O)N3CC(F)(F)F)cc2)CC1 (stereo not given) | 3010 | > 10 | 16.1 | 28.4 | – | – | –
15 | CN1C(=O)N(CCN(CCO)CCO)C(c2ccc(C(F)(F)F)cc2)C2=C1c1ccccc1C2=O (stereo not given) | 4 | 0.31 | 0.081 | > 50 | > 50 | 0.86 | –
16 | CN(CCOc1ccc(C2NC(=O)N(C)C3=C2C(=O)c2ccccc23)cc1)CCC(Oc1ccc(C(F)(F)F)cc1)c1ccccc1 (stereo not given) | 810 | > 10 | 11.2 | > 50 | – | – | –
17 | CN1CCN(CCN2C(=O)N(C)C3=C(C(=O)c4ccccc43)C2c2ccc(C(F)(F)F)cc2)CC1 (stereo not given) | 72 | > 10 | 1.48 | > 50 | 38.5 | – | –
18 | CN1CCN(CCOc2ccc(C3NC(=O)N(C)C4=C3C(=O)c3ccccc34)cc2)CC1 (stereo not given) | 490 | > 10 | 14.4 | > 50 | – | – | –

— ChEMBL document CHEMBL5120785, “Rational design, synthesis, antiproliferative activity against MCF-7, MDA-MB-231 cells, estrogen receptors binding affinity, and computational study of indenopyrimidine-2,5-dione analogs for the treatment of breast cancer” (Bioorg Med Chem Lett, 2022)
